Measurements reported in PubChem BioAssay (NCI).
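All cell lines were grown in 96-well plates and treated with compound for 48 hours. At the TGI there is no net growth.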

Tests used:
Test in all cases: NCI anticancer screen, dose series, 48 h
[1] = tested on: 786-0 renal
[2] = tested on: A498 renal
[3] = tested on: A549 NSCLC
[4] = tested on: ACHN renal
[5] = tested on: BT-549 breast
[6] = tested on: CAKI-1 renal
[7] = tested on: DU-145 prostate
[8] = tested on: EKVX NSCLC
[9] = tested on: HCT-116 colon
[10] = tested on: HCT-15 colon
[11] = tested on: HL-60(TB) leukemia
[12] = tested on: HOP-62 NSCLC
[13] = tested on: HOP-92 NSCLC
[14] = tested on: HT29 colon
[15] = tested on: IGROV1 ovarian
[16] = tested on: K-562 leukemia
[17] = tested on: KM12 colon
[18] = tested on: LOX IMVI melanoma
[19] = tested on: M14 melanoma
[20] = tested on: MALME-3M melanoma
[21] = tested on: MDA-MB-231 breast
[22] = tested on: MDA-MB-435
[23] = tested on: MDA-N
[24] = tested on: MOLT-4 leukemia
[25] = tested on: NCI-H226 lung
[26] = tested on: NCI-H23 lung
[27] = tested on: NCI-H460 lung
[28] = tested on: NCI-H522 lung
[29] = tested on: NCI/ADR-RES ovarian
[30] = tested on: OVCAR-3 ovarian
[31] = tested on: OVCAR-4 ovarian
[32] = tested on: OVCAR-5 ovarian
[33] = tested on: OVCAR-8 ovarian
[34] = tested on: PC-3 prostate
[35] = tested on: RXF 393 renal
[36] = tested on: SF-268 CNS
[37] = tested on: SF-295 CNS
[38] = tested on: SK-MEL-2 melanoma
[39] = tested on: SK-MEL-28 melanoma
[40] = tested on: SK-MEL-5 melanoma
[41] = tested on: SN12C renal
[42] = tested on: SNB-19 CNS
[43] = tested on: SNB-75 CNS
[44] = tested on: SR leukemia
[45] = tested on: SW-620 colon
[46] = tested on: T-47D breast
[47] = tested on: TK-10 renal
[48] = tested on: U251 CNS
[49] = tested on: UACC-257 melanoma
[50] = tested on: UACC-62 melanoma
[51] = tested on: UO-31 renal
[52] = tested on: CCRF-CEM leukemia
[53] = tested on: HCC-2998 colon
[54] = tested on: RPMI-8226 leukemia

Measured: TGI

O=C(O)c1cc(=O)[nH]c(SCc2ccccc2)n1
> 100 µM: [1] | [2] | [3] | [4] | [5] | [6] | [7] | [8] | [9] | [10] | [11] | [12] | [13] | [14] | [15] | [16] | [17] | [18] | [19] | [20] | [21] | [22] | [23] | [24] | [25] | [26] | [27] | [28] | [29] | [30] | [31] | [32] | [33] | [34] | [35] | [36] | [37] | [38] | [39] | [40] | [41] | [42] | [43] | [44] | [45] | [46] | [47] | [48] | [49] | [50] | [51]

CC1(C)/C(=N\O)C2(C#N)CCC1C2 (stereo not given)
> 100 µM: [2] | [4] | [5] | [6] | [52] | [53] | [10] | [11] | [13] | [16] | [17] | [21] | [22] | [23] | [24] | [25] | [26] | [27] | [29] | [31] | [33] | [54] | [36] | [39] | [41] | [42] | [43] | [44] | [45] | [47] | [48] | [49] | [50] | [51]
